In patent US20240262833A1, “FUSED HETEROCYCLIC DERIVATIVES AS NEGATIVE ALLOSTERIC MODULATORS OF MGLU7 RECEPTOR” (Addex Pharma S.A., priority 2021, published 2024):

Target: T1, human metabotropic glutamate 7 receptor (hmGlu7) (Homo sapiens, UniProt Q14831)
T1 construct: expressed in transfected cells
Assay: mGlu7 assay on HEK-expressing human mGlu7: fluorescent cell based Ca2+ mobilization assay (FLIPR), inhibition of EC80 L-AP4 response
Details: HEK-293 cells expressing hmGlu7; EC80 L-AP4 stimulation; mean of at least three independent experiments in duplicate; read-out: Ca2+ Flux (mean IC50)
Source text: mGlu7 Assay on HEK-Expressing Human mGlu7
The cDNA encoding the human metabotropic glutamate 7 receptor (hmGlu7), (accession number NM_181874.2, NCBI Nucleotide database browser), was subcloned into an expression vector containing also the hygromycin resistance gene. In parallel, the cDNA encoding a G protein allowing redirection of the activation signal to intracellular calcium flux was subcloned into a different expression vector containing also the Puromycin resistance gene. Transfection of both these vectors into HEK293 cells with PolyFect reagent (Qiagen) according to supplier's protocol, and hygromycin and puromycin treatment allowed selection of antibiotic resistant cells which had integrated stably one or more copies of the plasmids. Positive cellular clones expressing hmGlu7 were identified in a functional assay measuring changes in calcium fluxes in response to glutamate and L-AP4 or known mGlu7 orthosteric antagonists.
HEK-293 cells expressing hmGlu7 were maintained in media containing DMEM, Fetal Bovine Serum (10%), Glutamax™ (2 mM), penicillin (100 units/mL), streptomycin (100 μg/mL), geneticin (100 μg/mL) and hygromycin-B (40 μg/mL) and puromycin (1 μg/mL) at 37° C. with 5% CO2 in a humidified atmosphere.
Fluorescent Cell Based-Ca^2+ Mobilization Assay Human mGlu7 HEK-293 cells were plated out 24 hours prior to a fluorescent cell-based calcium mobilization assay using FLIPR^384 assay (Molecular Device, Sunnyvale, CA, USA) in black-walled, clear-bottomed, poly-L-ornithine-coated 384-well plates at a density of 25,000 cells/well in a glutamine/glutamate free DMEM medium containing fetal bovine serum (10%), penicillin (100 units/mL), streptomycin (100 μg/mL) and doxycyline (1 μg/ml) at 37° C. with 5% CO2 in a humidified atmosphere.
On the day of the assay, the medium was aspirated and the cells were loaded with a 3 μM solution of Fluo4-AM (LuBioScience, Lucerne, Switzerland) in 0.03% pluronic acid. After 1 hour at 37° C./5% CO2, the non incorporated dye was removed by washing cell plate with the assay buffer. All assays were performed in a pH 7.4 buffered-solution containing 20 mM HEPES, 143 mM NaCl, 6 mM KCl, 1 mM MgSO4, 1 mM CaCl2, 0.125 mM sulfinpyrazone and 0.1% glucose.
After 10 s of basal fluorescence recording, various concentrations of the compounds of the invention were added to the cells. Changes in fluorescence levels were first monitored for 180 s in order to detect any agonist activity of the compounds. Then the cells were stimulated by an EC80 L-AP4 concentration for an additional 110 s in order to measure inhibiting activities of the compounds of the invention. EC80 L-AP4 concentration is the concentration giving 80% of the maximal glutamate response.
The concentration-response curves of L-AP4 or representative compounds of the present invention were generated using the Prism GraphPad software (Graph Pad Inc, San Diego, USA). The curves were fitted to a four-parameter logistic equation: […]
allowing determination of IC50 values.
The Table 3 below represents the mean IC50 obtained from at least three independent experiments of selected molecules performed in duplicate.

T1 sequence (Q14831 35-922 isoform Q14831-2): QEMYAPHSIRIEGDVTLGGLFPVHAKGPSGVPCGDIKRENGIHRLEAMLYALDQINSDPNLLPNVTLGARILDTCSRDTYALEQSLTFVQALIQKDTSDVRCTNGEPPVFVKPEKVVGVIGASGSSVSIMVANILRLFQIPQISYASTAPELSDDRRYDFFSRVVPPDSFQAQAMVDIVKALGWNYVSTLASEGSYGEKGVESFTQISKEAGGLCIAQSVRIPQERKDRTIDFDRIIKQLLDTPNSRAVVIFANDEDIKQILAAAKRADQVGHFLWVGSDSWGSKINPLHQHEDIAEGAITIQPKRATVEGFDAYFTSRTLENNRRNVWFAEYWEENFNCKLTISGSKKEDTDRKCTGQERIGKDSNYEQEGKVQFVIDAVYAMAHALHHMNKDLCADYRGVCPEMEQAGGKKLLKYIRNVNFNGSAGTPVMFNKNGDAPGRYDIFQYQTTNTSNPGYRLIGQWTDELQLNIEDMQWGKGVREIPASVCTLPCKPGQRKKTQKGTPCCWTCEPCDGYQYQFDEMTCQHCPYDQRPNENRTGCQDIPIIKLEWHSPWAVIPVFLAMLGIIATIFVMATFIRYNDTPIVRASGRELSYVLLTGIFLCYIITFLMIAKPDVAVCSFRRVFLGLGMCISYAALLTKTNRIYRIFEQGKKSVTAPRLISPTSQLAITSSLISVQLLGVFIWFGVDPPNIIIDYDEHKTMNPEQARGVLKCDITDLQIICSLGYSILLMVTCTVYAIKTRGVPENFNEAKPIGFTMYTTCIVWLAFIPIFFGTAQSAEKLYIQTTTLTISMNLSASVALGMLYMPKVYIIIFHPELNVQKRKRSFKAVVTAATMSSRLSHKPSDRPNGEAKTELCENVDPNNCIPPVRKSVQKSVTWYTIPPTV

| SMILES | IC50 |
| --- | --- |
| Cc1cccc(-n2ncc3c(C)n(-c4ccccc4)c(C)c3c2=O)c1 [1-14] | < 100 nM |
| Cc1c2cnn(-c3ccccc3)c(=O)c2c(C)n1-c1ccccc1Cl [1-19] | 100 to 1000 nM |
| COc1ccc(-n2ncc3c(C)n(-c4cccc(OC)c4)c(C)c3c2=O)cc1 [1-97] | < 100 nM |
| COc1ccc(-n2ncc3c(C)n(-c4ccccc4)c(C)c3c2=O)cn1 [1-52] | 100 to 1000 nM |
| Cc1c2cnn(-c3ccccn3)c(=O)c2c(C)n1-c1ccc2cc[nH]c2c1 [1-80] | 1000 to 10000 nM |
| Cc1ccc(-n2ncc3c(C)n(-c4ccccc4)c(C)c3c2=O)cn1 [1-50] | 100 to 1000 nM |
| COc1cc(-n2c(C)c3cnn(-c4ccccn4)c(=O)c3c2C)ccc1Cl [1-72] | 1000 to 10000 nM |
| COc1ccccc1-n1ncc2c(C)n(-c3ccccc3)c(C)c2c1=O [1-5] | 1000 to 10000 nM |
| COc1cccc(-n2c(C)c3cnn(-c4cccc(CO)c4)c(=O)c3c2C)c1 [1-114] | 100 to 1000 nM |
| COc1cccc(-n2c(C)c3cnn(-c4ccc(-c5ccccc5)cc4)c(=O)c3c2C)c1 [1-71] | 100 to 1000 nM |
| COc1cccc(-n2c(C)c3cnn(-c4cccc(C(N)=O)c4)c(=O)c3c2C)c1 [1-73] | 100 to 1000 nM |
| COc1cccc(-n2c(C)c3cnn(-c4ccc(CO)cc4)c(=O)c3c2C)c1 [1-66] | < 100 nM |
| Cc1c2cnn(-c3ccccc3)c(=O)c2c(C)n1-c1cccc(N(C)C)c1 [1-35] | < 100 nM |
| CNC(=O)c1ccc(-n2ncc3c(C)n(-c4cccc(OC)c4)c(C)c3c2=O)cc1 [1-113] | 100 to 1000 nM |
| Cc1ccc(-n2c(C)c3cnn(-c4ccccc4)c(=O)c3c2C)c(C)c1 [1-32] | 100 to 1000 nM |
| Cc1c2cnn(-c3ccccn3)c(=O)c2c(C)n1-c1cccc(N2CCOCC2)c1 [1-90] | 1000 to 10000 nM |
| COc1cccc(-n2c(C)c3cnn(-c4cccnc4)c(=O)c3c2C)c1 [1-41] | 100 to 1000 nM |
| COc1ccc(-n2c(C)c3cnn(-c4ccc(CNC(C)=O)cc4)c(=O)c3c2C)cc1 [1-106] | 100 to 1000 nM |
| Cc1ccc(-n2c(C)c3cnn(-c4ccccn4)c(=O)c3c2C)cc1 [1-48] | 100 to 1000 nM |
| Cc1c2cnn(-c3ccccc3)c(=O)c2c(C)n1-c1cccc(Br)c1 [1-34, 6-(3-bromophenyl)-5,7-dimethyl-2-phenyl-2,6-dihydro-1H-pyrrolo[3,4-d]pyridazin-1-one] | 1000 to 10000 nM |
| Cc1c2cnn(-c3ccc(S(=O)(=O)N(C)C)cc3)c(=O)c2c(C)n1-c1ccccc1 [1-87] | 100 to 1000 nM |
| CC(=O)c1ccc(-n2ncc3c(C)n(-c4ccccc4)c(C)c3c2=O)cc1 [1-27] | 100 to 1000 nM |
| COc1cccc(-n2c(C)c3cnn(-c4ccc(N5CCOCC5)nc4)c(=O)c3c2C)c1 [1-91] | 100 to 1000 nM |
| Cc1ccc(-n2c(C)c3cnn(-c4ccccn4)c(=O)c3c2C)nc1 [1-56] | 1000 to 10000 nM |
| COc1ccc(-n2ncc3c(C)n(-c4ccccn4)c(C)c3c2=O)cc1 [1-81] | 1000 to 10000 nM |
| CC(=O)NCc1ccc(-n2ncc3c(C)n(-c4ccccc4)c(C)c3c2=O)cc1 [1-104] | 100 to 1000 nM |
| Cc1ccc(-n2c(C)c3cnn(-c4ccccc4)c(=O)c3c2C)cc1 [1-1] | < 100 nM |
| Cc1c2cnn(-c3ccccc3)c(=O)c2c(C)n1-c1ccccn1 [1-25] | 1000 to 10000 nM |

Further lines, results first:

| IC50 | SMILES |
| --- | --- |
| 100 to 1000 nM | Cc1cccc(-n2ncc3c(C)n(-c4cccc(N5CCC5)c4)c(C)c3c2=O)n1 [1-154] |
| < 100 nM | Cc1c(OC2CC2)cccc1-n1c(C)c2cnn(-c3ncccn3)c(=O)c2c1C [1-200] |
| < 100 nM | Cc1c2cnn(-c3ncc(F)cn3)c(=O)c2c(C)n1-c1cccc2c1ccn2C1CC1 [1-214] |
| 100 to 1000 nM | Cc1c2cnn(-c3ccc(N4CCOCC4)cc3)c(=O)c2c(C)n1-c1cccc(N2CCC2)c1 [1-219] |
| < 100 nM | Cc1cncc(-n2ncc3c(C)n(-c4cccc(N5CCC5)c4)c(C)c3c2=O)c1 [1-158] |
| < 100 nM | COc1cccc(-n2c(C)c3cnn(-c4ccc(S(N)(=O)=O)cc4)c(=O)c3c2C)c1 [1-120] |
| 100 to 1000 nM | Cc1c2cnn(-c3ccccn3)c(=O)c2c(C)n1-c1cccc(N2CCC(C)(C)C2)c1 [1-179] |
| 1000 to 10000 nM | Cc1c2cnn(-c3ccc(I)cc3)c(=O)c2c(C)n1-c1cccc(N2CCC2)c1 [1-181] |
| 100 to 1000 nM | Cc1c2cnn(-c3ccccn3)c(=O)c2c(C)n1-c1cccc(OC2CC2)c1F [1-235] |
| 100 to 1000 nM | COc1cccc(-n2c(C)c3cnn(-c4ccccc4Cl)c(=O)c3c2C)c1 [1-150] |
| < 100 nM | Cc1c2cnn(-c3ccccn3)c(=O)c2c(C)n1-c1cccc(OC(F)F)c1 [1-202] |
| 100 to 1000 nM | COc1cccc(-n2c(C)c3cnn(-c4cccc(CNC(C)=O)c4)c(=O)c3c2C)c1 [1-115] |
| < 100 nM | Cc1c2cnn(-c3ncccn3)c(=O)c2c(C)n1-c1cccc2c1ccn2C1CC1 [1-198] |
| 100 to 1000 nM | COCc1ccc(-n2ncc3c(C)n(-c4cccc(OC)c4)c(C)c3c2=O)cc1 [1-128] |
| < 100 nM | CNC(=O)Cc1ccc(-n2ncc3c(C)n(-c4cccc(N5CCC5)c4)c(C)c3c2=O)cc1 [1-180] |
| < 100 nM | Cc1c2cnn(-c3ccc(C#N)cn3)c(=O)c2c(C)n1-c1cccc(N2CCC2)c1 [1-160] |
| 100 to 1000 nM | COc1cccc(-n2c(C)c3cnn(-c4ccc(C(F)(F)F)cn4)c(=O)c3c2C)c1 [1-122] |
| 100 to 1000 nM | COc1cccc(-n2c(C)c3cnn(-c4cccc(C(C)=O)c4)c(=O)c3c2C)c1 [1-147] |
| < 100 nM | Cc1c2cnn(-c3ccncc3)c(=O)c2c(C)n1-c1cccc(N2CCC2)c1 [1-156] |
| < 100 nM | Cc1c2cnn(-c3ccc(CCO)cc3)c(=O)c2c(C)n1-c1cccc(N2CCC2)c1 [1-169, 6-(3-(Azetidin-1-yl)phenyl)-2-(4-(2-hydroxyethyl)phenyl)-5,7-dimethyl-2,6-dihydro-1H-pyrrolo[3,4-d]pyridazin-1-one] |

| IC50 | SMILES |
| --- | --- |
| 100 to 1000 nM | Cc1c2cnn(-c3ccccn3)c(=O)c2c(C)n1-c1ccc(C2CC2)cc1 [1-186] |
| < 100 nM | Cc1c2cnn(-c3ccc(Cl)cn3)c(=O)c2c(C)n1-c1cccc(N2CCC2)c1 [1-183] |
| 100 to 1000 nM | COc1cc(OC)cc(-n2c(C)c3cnn(-c4ccccn4)c(=O)c3c2C)c1 [1-175] |
| 100 to 1000 nM | COc1ccccc1-n1ncc2c(C)n(-c3cccc(N4CCC4)c3)c(C)c2c1=O [1-176] |
| < 100 nM | Cc1c2cnn(-c3ccccn3)c(=O)c2c(C)n1-c1cccc(-c2ccco2)c1 [1-136] |
| < 100 nM | Cc1c2cnn(-c3ncccc3F)c(=O)c2c(C)n1-c1cccc2c1ccn2C1CC1 [1-213] |
| < 100 nM | Cc1c2cnn(-c3ccccn3)c(=O)c2c(C)n1-c1cccc(N2CCCCC2)c1 [1-143] |
| 100 to 1000 nM | Cc1cccnc1-n1ncc2c(C)n(-c3cccc(N4CCC4)c3)c(C)c2c1=O [1-159] |
| < 100 nM | Cc1c2cnn(-c3ccc(CCF)cc3)c(=O)c2c(C)n1-c1cccc(N2CCC2)c1 [1-189, 6-(3-(Azetidin-1-yl)phenyl)-2-(4-(2-fluoroethyl)phenyl)-5,7-dimethyl-2,6-dihydro-1H-pyrrolo[3,4-d]pyridazin-1-one] |
| < 100 nM | Cc1cc(-n2ncc3c(C)n(-c4cccc(N5CCC5)c4)c(C)c3c2=O)ccn1 [1-182] |
| < 100 nM | Cc1c2cnn(-c3cccnc3)c(=O)c2c(C)n1-c1cccc(N2CCC2)c1 [1-164] |
| < 100 nM | Cc1c2cnn(-c3ccccc3F)c(=O)c2c(C)n1-c1cccc(N2CCC2)c1 [1-177] |
| 100 to 1000 nM | COc1cccc(-n2c(C)c3cnn(-c4ccc(OC)c(OC)c4)c(=O)c3c2C)c1 [1-117] |
| 100 to 1000 nM | Cc1c2cnn(-c3ccccn3)c(=O)c2c(C)n1-c1cccc2c1CCN2C [1-210] |
| 100 to 1000 nM | COc1cccc(-n2c(C)c3cnn(-c4ccc(C)cn4)c(=O)c3c2C)c1 [1-172] |
| 100 to 1000 nM | COc1cccc(-n2c(C)c3cnn(-c4ncc(C5CC5)cn4)c(=O)c3c2C)c1C [1-207] |
| 1000 to 10000 nM | COc1ccccc1-n1c(C)c2cnn(-c3ccccn3)c(=O)c2c1C [1-193] |
| 1000 to 10000 nM | CC(=O)c1ccc(-n2c(C)c3cnn(-c4ccccn4)c(=O)c3c2C)cc1 [1-132] |
| < 100 nM | COc1cccc(-n2c(C)c3cnn(-c4ccc(O)cc4)c(=O)c3c2C)c1 [1-145] |
| 100 to 1000 nM | COc1ccc(F)c(-n2c(C)c3cnn(-c4ccccn4)c(=O)c3c2C)c1 [1-194] |
